Measurements published in ChEMBL document CHEMBL1201862, “PubChem BioAssay data set” (2004).
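Interpolation was linear, between the two tested concentrations surrounding the appropriate level; five concentrations were tested over 48 hours in 96-well plates. GI50: concentration for 50% inhibition of growth.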 The source made the active and inactive calls. No stated cut-off is given here; in the data, active = GI50 up to about 1.1 µM and inactive = higher.

Key:
Assay in all cases: NCI-60 cell line screen, 48 h
SK-MEL-28 = system: SK-MEL-28
U-251 = system: U-251
OVCAR-8 = system: OVCAR-8
NCI-H522 = system: NCI-H522
CAKI-1 = system: CAKI-1
T47D = system: T47D
RPMI-8226 = system: RPMI-8226
MDA-MB-231 = system: MDA-MB-231
BT-549 = system: BT-549
NCI/ADR-RES = system: NCI/ADR-RES
SN12C = system: SN12C
UO-31 = system: UO-31
SK-MEL-5 = system: SK-MEL-5
HOP-62 = system: HOP-62
COLO 205 = system: COLO 205
HT-29 = system: HT-29
786-0 = system: 786-0
SW-620 = system: SW-620
IGROV-1 = system: IGROV-1
K562 = system: K562

Measured: GI50

O=C1c2ccccc2C(=O)c2c1oc1cc(O)c(Cl)cc21
inactive: SK-MEL-28 3.05 µM | U-251 5.36 µM | OVCAR-8 7.38 µM | NCI-H522 9.42 µM | CAKI-1 16.7 µM | T47D 16.5 µM | RPMI-8226 4.54 µM | MDA-MB-231 12.8 µM | BT-549 4.97 µM | NCI/ADR-RES 12.7 µM | SN12C 7.98 µM | UO-31 11.9 µM | HOP-62 10.7 µM | COLO 205 1.72 µM | HT-29 1.95 µM | 786-0 10.8 µM | SW-620 8.45 µM | IGROV-1 10.1 µM | K562 13.5 µM
active: SK-MEL-5 0.299 µM

NS(=O)(=O)c1cc(Br)c(/N=N\c2ccc(O)c3ncccc23)c(Br)c1
inactive: SK-MEL-28 27.4 µM | U-251 19.1 µM | OVCAR-8 35.2 µM | NCI-H522 16.5 µM | CAKI-1 37.9 µM | T47D 39 µM | RPMI-8226 7.26 µM | MDA-MB-231 51.1 µM | BT-549 16.4 µM | NCI/ADR-RES 13.2 µM | SN12C 22.3 µM | UO-31 21.3 µM | SK-MEL-5 30.7 µM | HOP-62 25.5 µM | COLO 205 > 100 µM | HT-29 > 100 µM | 786-0 23.6 µM | SW-620 34.8 µM | IGROV-1 11 µM | K562 20 µM

CCOC(=O)/C=C(\C)Sc1cc(O)c2ccccc2c1O
inactive: SK-MEL-28 13.2 µM | U-251 20.3 µM | OVCAR-8 16.5 µM | NCI-H522 10.1 µM | CAKI-1 23.5 µM | T47D 2.94 µM | RPMI-8226 24.8 µM | MDA-MB-231 16.4 µM | BT-549 22 µM | NCI/ADR-RES 25.3 µM | SN12C 29.2 µM | UO-31 4.51 µM | SK-MEL-5 12.6 µM | HOP-62 20.2 µM | COLO 205 17.3 µM | HT-29 22.2 µM | 786-0 19.8 µM | SW-620 5.08 µM | IGROV-1 12 µM | K562 5.51 µM

O=S(=O)(O)c1ccc(Nc2ccnc3ccccc23)cc1
inactive: SK-MEL-28 > 100 µM | U-251 > 100 µM | OVCAR-8 > 100 µM | NCI-H522 > 100 µM | CAKI-1 > 100 µM | T47D > 100 µM | RPMI-8226 > 100 µM | MDA-MB-231 > 100 µM | BT-549 > 100 µM | NCI/ADR-RES > 100 µM | SN12C > 100 µM | UO-31 > 100 µM | SK-MEL-5 > 100 µM | HOP-62 > 100 µM | COLO 205 > 100 µM | HT-29 > 100 µM | 786-0 > 100 µM | SW-620 > 100 µM | IGROV-1 > 100 µM | K562 > 100 µM

COC1CC(C)(N)C(O)C(C)O1 (stereo not given)
inactive: SK-MEL-28 > 100 µM | U-251 > 100 µM | OVCAR-8 > 100 µM | NCI-H522 > 100 µM | CAKI-1 > 100 µM | T47D > 100 µM | RPMI-8226 > 100 µM | MDA-MB-231 > 100 µM | BT-549 > 100 µM | NCI/ADR-RES > 100 µM | SN12C > 100 µM | UO-31 > 100 µM | SK-MEL-5 > 100 µM | HOP-62 > 100 µM | COLO 205 > 100 µM | HT-29 > 100 µM | 786-0 > 100 µM | SW-620 > 100 µM | IGROV-1 > 100 µM | K562 > 100 µM
